This is an account of results in patent US7875647B2, “Heteroaryl-pyrazole derivatives as cannabinoid CB1 receptor antagonists” (Green Cross Corporation, priority 2006, dated 2011).

The structures appear in SMILES notation. pIC50: −log10 of the molar value.

For this assay, the target named is T1, Cannabinoid-1 receptor (CB1R) (Rattus norvegicus, UniProt P20272).
T1 construct: The tissue obtained from the brain of SD rats was homogenized; from tissue; host or cells: brain of SD rats (membrane pellet of the homogenate)
T1 sequence (P20272 whole entry): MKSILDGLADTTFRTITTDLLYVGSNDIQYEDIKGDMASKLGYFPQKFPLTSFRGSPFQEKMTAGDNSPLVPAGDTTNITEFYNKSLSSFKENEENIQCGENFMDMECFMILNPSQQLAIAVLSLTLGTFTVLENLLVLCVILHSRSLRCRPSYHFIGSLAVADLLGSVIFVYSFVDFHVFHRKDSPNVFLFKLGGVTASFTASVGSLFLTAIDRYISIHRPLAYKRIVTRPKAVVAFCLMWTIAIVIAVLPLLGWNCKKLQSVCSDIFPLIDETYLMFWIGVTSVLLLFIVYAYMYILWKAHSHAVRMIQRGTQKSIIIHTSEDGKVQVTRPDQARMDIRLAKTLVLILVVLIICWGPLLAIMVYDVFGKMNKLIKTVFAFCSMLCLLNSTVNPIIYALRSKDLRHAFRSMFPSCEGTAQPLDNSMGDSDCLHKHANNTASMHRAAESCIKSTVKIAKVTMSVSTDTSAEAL
Put plainly: Cannabinoid-1 receptor (CB1R) binding affinity assay ([3H]CP-55940, rat CB-1 receptor binding protocol). The conditions noted are these: brain tissue of SD rats, [3H]CP-55940, 30° C. 60 min; read-out: IC50.
As a reminder, the pIC50 is the negative decadic logarithm of the IC50, by convention in mol/L. Turning to `Clc1ccc(-c2c(Cn3cncn3)c(-c3nnc(C4(c5ccc(Cl)cc5)CCC4)o3)nn2-c2ccc(Cl)cc2Cl)cc1` [Example 322, 2-(4-((1H-1,2,4-triazol-1-yl)methyl)-5-(4-chlorophenyl)-1-(2,4-dichlorophenyl)-1H-pyrazol-3-yl)-5-(1-(4-chlorophenyl)cyclobutyl)-1,3,4-oxadiazole], the pIC50 is 8.47.

With `Clc1ccc(-c2c(Cn3cncn3)c(-c3nnc(C4(c5ccccc5)CCCC4)o3)nn2-c2ccc(Cl)cc2Cl)cc1` [Example 323, 2-(4-((1H-1,2,4-triazol-1-yl)methyl)-5-(4-chlorophenyl)-1-(2,4-dichlorophenyl)-1H-pyrazol-3-yl)-5-(1-phenylcyclopentyl)-1,3,4-oxadiazole], the pIC50 was 8.28.

With `Clc1ccc(-c2c(Cn3cncn3)c(-c3nnc(C4(c5ccc(Cl)cc5)CCCC4)o3)nn2-c2ccc(Cl)cc2Cl)cc1` [Example 324, 2-(4-((1H-1,2,4-triazol-1-yl)methyl)-5-(4-chlorophenyl)-1-(2,4-dichlorophenyl)-1H-pyrazol-3-yl)-5-(1-(4-chlorophenyl)cyclopentyl)-1,3,4-oxadiazole], the pIC50 was 8.33.

As to `CC(C)(C)c1nnc(-c2nn(-c3ccccc3Cl)c(-c3ccc(Cl)cc3)c2Cn2cncn2)o1` [Example 325, 2-(4-((1H-1,2,4-triazol-1-yl)methyl)-1-(2-chlorophenyl)-5-(4-chlorophenyl)-1H-pyrazol-3-yl)-5-tert-butyl-1,3,4-oxadiazole], the pIC50 is 8.65.

For `CC(C)(C)c1nnc(-c2nn(-c3ccc(Cl)cc3Cl)c(-c3ccc(Br)cc3)c2Cn2cncn2)o1` [Example 329, 2-(4-((1H-1,2,4-triazol-1-yl)methyl)-5-(4-bromophenyl)-1-(2,4-dichlorophenyl)-1H-pyrazol-3-yl)-5-tert-butyl-1,3,4-oxadiazole], the pIC50 is 8.56.

With `CC(C)(C)c1nnc(-c2nn(-c3ccc(Cl)cc3Cl)c(-c3ccc(Cl)cc3)c2Cc2nnn[nH]2)o1` [Example 330, 2-(4-((1H-tetrazol-5-yl)methyl)-5-(4-chlorophenyl)-1-(2,4-dichlorophenyl)-1H-pyrazol-3-yl)-5-tert-butyl-1,3,4-oxadiazole], the negative logarithm of the IC50 (pIC50) was 6.05.

Turning to `Cn1nnnc1Cc1c(-c2nnc(C(C)(C)C)o2)nn(-c2ccc(Cl)cc2Cl)c1-c1ccc(Cl)cc1` [Example 332, 2-tert-butyl-5-(5-(4-chlorophenyl)-1-(2,4-dichlorophenyl)-4-((1-methyl-1H-tetrazol-5-yl)methyl)-1H-pyrazol-3-yl)-1,3,4-oxadiazole], the pIC50 was 7.83.

`Clc1ccc(-c2c(Cl)c(-c3nnc(C4CCC4)o3)nn2-c2ccc(Cl)cc2Cl)cc1` [Example 333, 2-(4-chloro-5-(4-chlorophenyl)-1-(2,4-dichlorophenyl)-1H-pyrazol-3-yl)-5-cyclobutyl-1,3,4-oxadiazole]: the pIC50 is 6.82.

Regarding `CCC(C)(C)c1nnc(-c2nn(-c3ccc(Cl)cc3Cl)c(-c3ccc(Cl)cc3)c2Cl)o1` [Example 334, 2-(4-chloro-5-(4-chlorophenyl)-1-(2,4-dichlorophenyl)-1H-pyrazol-3-yl)-5-tert-pentyl-1,3,4-oxadiazole], the pIC50 was 7.29.

On to `Clc1ccc(-c2c(Cl)c(-c3nnc(C4CCCCC4)o3)nn2-c2ccc(Cl)cc2Cl)cc1` [Example 335, 2-(4-chloro-5-(4-chlorophenyl)-1-(2,4-dichlorophenyl)-1H-pyrazol-3-yl)-5-cyclohexyl-1,3,4-oxadiazole], for which the pIC50 was 6.29.

In the case of `CCC(C)c1nnc(-c2nn(-c3ccc(Cl)cc3Cl)c(-c3ccc(Cl)cc3)c2Cl)o1` (stereo not drawn) [Example 336, 2-sec-butyl-5-(4-chloro-5-(4-chlorophenyl)-1-(2,4-dichlorophenyl)-1H-pyrazol-3-yl)-1,3,4-oxadiazole], the pIC50 is 6.68.

Regarding `CC(C)(C)c1nnc(-c2nn(-c3ccc(Cl)cc3Cl)c(-c3ccc(Cl)cc3)c2Cl)o1` [Example 337, 2-tert-butyl-5-(4-chloro-5-(4-chlorophenyl)-1-(2,4-dichlorophenyl)-1H-pyrazol-3-yl)-1,3,4-oxadiazole], the pIC50 was 6.98.
